Experiments:
[1] = biological target: human recombinant IRAK4 protein (Homo sapiens (Human), UniProt Q9NWZ3); assay: IRAK4 enzyme assay (mass spectrometry readout); format: biochemical; settings: 3 mM ATP, 0.2 nM enzyme; geometric mean of at least n=2, * single experiment
Procedure: Potency of IRAK4 Inhibitor Compounds in IRAK4 Enzyme Assay
The inhibitory activity of compounds against IRAK4 were determined in an enzymatic assay using mass spectrometry readout. Ten point half-log compound concentration response curves, with a top concentration of 1 μM or 10 μM, were generated from 10 mM stocks of compound solubilized in DMSO using an Echo 655 (Labcyte Inc) and added to 384 well assay plates (Greiner #781280). To the assay plates, 10 μL of human recombinant IRAK4 protein (Life Technologies #PV4002) diluted to a final concentration of 0.2 nM in assay buffer (50 mM Tris-HCl pH 7.4, 10 mM MgCl, 5 mM glutathione, 0.01% BSA, 3 mM ATP) was added. The enzyme was incubated with the compounds at room temperature for 15 minutes before a peptide substrate ([…], Innovagen custom synthesis, 10 mM in DMSO) was added to each well to a final concentration of 10 μM using an Echo 655 (Labcyte Inc). After two hours at room temperature, the reaction was stopped with 90 μL of 0.4% formic acid (Merck #33015). The unphosphorylated and phosphorylated peptide were measured by LC-MS/MS on a Waters TQ-S mass spectrometer. Peaks were integrated using the TargetLynx software and the ratios between phosphorylated and unphosphorylated peptides were calculated. Curves were fitted and compound potencies determined in Genedata Screener 15 (Genedata AG). Data presented are the geometric mean of at least n=2, or as denoted by an * are obtained from a single experiment.

[2] = biological target: IRAK4 auto-phosphorylation (Homo sapiens (Human), UniProt Q9NWZ3); assay: IRAK4 phosphorylation cell assay in IL-1β-stimulated Karpas-299 cells; format: cell-based; settings: IL-1β 22.7 ng/mL, pIRAK4 (Thr345/Ser346), geometric mean of at least 2 experiments
Procedure: IRAK4 Phosphorylation Cell Assay
The activation of IRAK4 by TLR or IL-1R ligands leads to IRAK4 auto-phosphorylation, which can be prevented by IRAK4 kinase inhibitors. The effect of IRAK4 inhibitor compounds on IRAK4 auto-phosphorylation was assessed in IL-1β-stimulated Karpas-299 cells as a measurement of cellular potency. Karpas-299 cells were cultured in RPMI 1640 (Gibco 61870-010) containing 10% FBS (Gibco #10270). Cells were plated at 2×10^4 cells per well in poly-D-lysine coated 384 well plates (Corning #356663) to which compounds had been added at various concentrations (10 point half log dose response with a final top concentration of 30 μM) using an Echo 655 (Labcyte Inc). Cells were centrifuged (250 g, 4 mins), incubated at 37° C. for 1 h, then stimulated with 22.7 ng/mL recombinant IL-1β (R&D Systems, #201-LB-025) at 37° C. for 10 mins, followed by fixation in 4% paraformaldehyde for 10 mins and permeabilization in ice-cold 70% MeOH for 30 mins. Cells were washed twice with phosphate-buffered saline (PBS) on a BlueWasher (BlueCatBio) then blocked with PBS containing 10% FBS for 20 mins. Blocking solution was removed with a BlueWasher and cells were stained with anti-pIRAK4 (Thr345/Ser346) (CST, #11927, 1:400) in blocking buffer with 0.05% Tween-20 for 1 h, then washed twice with PBS containing 0.05% Tween-20 on a BlueWasher, followed by staining with a Alexa 647-conjugated secondary anti-rabbit IgG antibody (CST, #4414, 1:2,000) and Hoechst 33342 (Sigma, 1:2,000) in blocking buffer with 0.05% Tween-20 for 30 mins. Finally, the cells were washed twice with PBS containing 0.05% Tween-20 and imaged on an ImageXpress Micro (Molecular Devices) with a 10× air objective using the appropriate filters. Images were analysed in Columbus (PerkinElmer) and the fluorescence intensity per cell from the secondary antibody was quantified. The quantified data were analysed in Genedata Screener 15 (Genedata AG). […] IC50 values are the geometric mean of at least 2 experiments.

Chain of human recombinant IRAK4 protein (Q9NWZ3 whole entry): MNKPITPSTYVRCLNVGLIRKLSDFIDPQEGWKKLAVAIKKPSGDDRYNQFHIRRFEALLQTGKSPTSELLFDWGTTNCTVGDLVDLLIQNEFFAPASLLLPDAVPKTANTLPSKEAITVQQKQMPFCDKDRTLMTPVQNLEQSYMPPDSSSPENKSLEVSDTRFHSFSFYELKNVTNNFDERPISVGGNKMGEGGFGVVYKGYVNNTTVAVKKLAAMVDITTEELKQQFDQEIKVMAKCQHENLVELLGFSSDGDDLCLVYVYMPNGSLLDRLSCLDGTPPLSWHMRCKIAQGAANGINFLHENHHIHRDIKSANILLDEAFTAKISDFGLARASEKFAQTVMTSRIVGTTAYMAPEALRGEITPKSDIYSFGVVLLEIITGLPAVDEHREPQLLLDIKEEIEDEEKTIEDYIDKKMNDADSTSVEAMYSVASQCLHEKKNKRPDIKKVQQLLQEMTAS
Chain of IRAK4 auto-phosphorylation (Q9NWZ3 whole entry): as above

Row | SMILES | IC50 [1] | IC50 [2]
1 | COc1cc2nn([C@@H]3CCC(N(C)C(C)=O)C[C@H]3C)cc2cc1C(=O)Nc1cnn2cccnc12 (single isomer, unassigned) [Example 60] | 0.8 nM | 21 nM
2 | O=C(Nc1cnn2cccnc12)c1cc2cn([C@H]3CC[C@@H](O)CC3)nc2cc1OC1CC1 [Example 56] | 1.2 nM | 79 nM
3 | COc1cc2nn([C@H]3CC[C@@H](N(C)C(C)=O)CC3)cc2cc1C(=O)Nc1cnn2cnccc12 [Example 24, 6-Methoxy-2-((1s,4s)-4-(N-methylacetamido)cyclohexyl)-N-(pyrazolo[1,5-c]pyrimidin-3-yl)-2H-indazole-5-carboxamide] | 83.1 nM | 668 nM
4 | COc1cc2nn(C3CCC(N(C)C(=O)C4CC(O)C4)CC3)cc2cc1C(=O)Nc1cnn2cnccc12 [Example 98, 2-((1R,4r)-4-((1s,3S)-3-hydroxy-N-methylcyclobutane-1-carboxamido)cyclohexyl)-6-methoxy-N-(pyrazolo[1,5-c]pyrimidin-3-yl)-2H-indazole-5-carboxamide] | 0.6 nM | 20 nM
5 | COc1cc2nn([C@H]3CC[C@@H](O)C[C@@H]3C)cc2cc1C(=O)Nc1cnn2cccnc12 (relative stereo) [Example 41] | 14.3 nM | 331 nM
6 | COc1cc2nn([C@H]3CCC(N(C)C(C)=O)C[C@@H]3C)cc2cc1C(=O)Nc1cnc2cccnn12 (single isomer, unassigned) [Example 35, N-(imidazo[1,2-b]pyridazin-3-yl)-6-methoxy-2-((1S,2S,4R*)-2-methyl-4-(N-methylacetamido)cyclohexyl)-2H-indazole-5-carboxamide] | 7.2 nM | 115 nM
7 | COc1cc2nn([C@H]3CC[C@@H](NC(=O)C4CC4)CC3)cc2cc1C(=O)Nc1cnn2cnccc12 [Example 27, 2-((1s,4s)-4-(Cyclopropanecarboxamido)cyclohexyl)-6-methoxy-N-(pyrazolo[1,5-c]pyrimidin-3-yl)-2H-indazole-5-carboxamide] | 4.4 nM | 67 nM
8 | COc1cc2nn([C@H]3CC[C@H](N(C)C(=O)[C@H](C)O)CC3)cc2cc1C(=O)Nc1cnn2cccnc12 [Example 59, 2-((1S,4r)-4-((S)-2-Hydroxy-N-methylpropanamido)cyclohexyl)-6-methoxy-N-(pyrazolo[1,5-a]pyrimidin-3-yl)-2H-indazole-5-carboxamide] | 1.3 nM | 40 nM
9 | COc1cc2nn([C@H]3CCC(N(C)C(C)=O)C[C@@H]3C)cc2cc1C(=O)Nc1cnn2cccnc12 (single isomer, unassigned) [Example 63, 6-methoxy-2-((1S,2S,4R*)-2-methyl-4-(N-methylacetamido)cyclohexyl)-N-(pyrazolo[1,5-a]pyrimidin-3-yl)-2H-indazole-5-carboxamide] | 46.8 nM | 338 nM
10 | COc1cc2nn(C3CCC(C)(O)CC3)cc2cc1C(=O)Nc1cnc2cccnn12 (single isomer, unassigned) [Example 48, 2-(4-Hydroxy-4-methylcyclohexyl)-N-(imidazo[1,2-b]pyridazin-3-yl)-6-methoxy-2H-indazole-5-carboxamide] | 0.7 nM | 17 nM
11 | C[C@@]1(O)CCC[C@H](n2cc3cc(C(=O)Nc4cnn5cccnc45)c(OC4CC4)cc3n2)C1 (relative stereo) [Example 55, rel-6-cyclopropoxy-2-(1S,3R)-3-hydroxy-3-methylcyclohexyl)-N-(pyrazolo[1,5-a]pyrimidin-3-yl)-2H-indazole-5-carboxamide] | 0.7 nM | 51 nM
12 | COc1cc2nn([C@H]3CCC(N(C)C(C)=O)C[C@@H]3C)cc2cc1C(=O)Nc1cnn2cccnc12 (single isomer, unassigned) [Example 62, 6-methoxy-2-((1S,2S,4R*)-2-methyl-4-(N-methylacetamido)cyclohexyl)-N-(pyrazolo[1,5-a]pyrimidin-3-yl)-2H-indazole-5-carboxamide] | 16 nM | 185 nM
13 | CC(=O)N1CC2(CC[C@@H](n3cc4cc(C(=O)Nc5cnn6cccnc56)c(OC5CC5)cc4n3)[C@H](C)C2)C1 (single isomer, unassigned) [Example 28] | 3 nM | 161 nM

Continued, values first:

Row | IC50 [1] | IC50 [2] | SMILES
14 | 0.9 nM | 24 nM | COc1cc2nn([C@H]3CCC[C@H](O)[C@@H]3C)cc2cc1C(=O)Nc1cnc2cccnn12 (relative stereo) [Example 107, rel-2-(1S,2R,3S)-3-Hydroxy-2-methylcyclohexyl)-N-(imidazo[1,2-b]pyridazin-3-yl)-6-methoxy-2H-indazole-5-carboxamide]
15 | 1 nM | 21 nM | COc1cc2nn([C@H]3CC[C@H](O)[C@H](C)C3)cc2cc1C(=O)Nc1cnc2cccnn12 (single isomer, unassigned) [Example 79]
16 | 2.4 nM | 27 nM | COc1cc2nn([C@@H]3CC[C@H](O)[C@@H](C)C3)cc2cc1C(=O)Nc1cnc2cccnn12 (single isomer, unassigned) [Example 82]
17 | 1.1 nM | 25 nM | COc1cc2nn([C@H]3CCC[C@@H](O)[C@H]3C)cc2cc1C(=O)Nc1cnc2cccnn12 (single isomer, unassigned) [Example 104]
18 | 0.4 nM | 9 nM | COc1cc2nn([C@@H]3CC[C@]4(CC(=O)N(C)C4)C[C@H]3C)cc2cc1C(=O)Nc1cnc2cccnn12 (relative stereo) [Example 70, rel-2-(5R,7R,8R)-2,7-Dimethyl-3-oxo-2-azaspiro[4.5]decan-8-yl)-N-(imidazo[1,2-b]pyridazin-3-yl)-6-methoxy-2H-indazole-5-carboxamide or rel-2-(5R,7S,8S)-2,7-Dimethyl-3-oxo-2-azaspiro[4.5]decan-8-yl)-N-(imidazo[1,2-b]pyridazin-3-yl)-6-methoxy-2H-indazole-5-carboxamide]
19 | 0.7 nM | 21 nM | COc1cc2nn([C@H]3CC[C@H](N(C)C(=O)[C@@H]4CC[C@@H](O)C4)CC3)cc2cc1C(=O)Nc1cnn2cccnc12 (relative stereo) [Example 112]
20 | 0.9 nM | 27 nM | COc1cc2nn([C@H]3CC[C@H](N(C)C(=O)C[C@@H](C)O)CC3)cc2cc1C(=O)Nc1cnn2cccnc12 [Example 111, 2-((1R,4r)-4-((R)-3-Hydroxy-N-methylbutanamido)cyclohexyl)-6-methoxy-N-(pyrazolo[1,5-a]pyrimidin-3-yl)-2H-indazole-5-carboxamide]
21 | 0.7 nM | 16 nM | COc1cc2nn([C@H]3CC[C@H](N(C)C(=O)[C@@H]4CC[C@H](O)C4)CC3)cc2cc1C(=O)Nc1cnn2cccnc12 (relative stereo) [Example 114]
22 | 5.1 nM | 82 nM | COc1cc2nn([C@H]3CC[C@H](O)[C@@H](C)C3)cc2cc1C(=O)Nc1cnc2cccnn12 (single isomer, unassigned) [Example 81]
23 | 2.7 nM | 79 nM | COc1cc2nn(C3CCC4(CC3)COC(=O)N4C)cc2cc1C(=O)Nc1cnc2cccnn12 (single isomer, unassigned) [Example 74, N-(Imidazo[1,2-b]pyridazin-3-yl)-6-methoxy-2-(1-methyl-2-oxo-3-oxa-1-azaspiro[4.5]decan-8-yl)-2H-indazole-5-carboxamide]
24 | 1.3 nM | 44 nM | COc1cc2nn([C@@H]3CC[C@H](O)C[C@H]3C)cc2cc1C(=O)Nc1cnc2cccnn12 [Example 88, 2-((1R,2R,4S)-4-hydroxy-2-methylcyclohexyl)-N-(imidazo[1,2-b]pyridazin-3-yl)-6-methoxy-2H-indazole-5-carboxamide]

— patent publication US11866405B2, “Substituted indazoles as IRAK4 inhibitors” (AstraZeneca AB, priority 2020, dated 2024)
